PMC8100298, “Histone deacetylase inhibitor resminostat in combination with sorafenib counteracts platelet-mediated pro-tumoral effects in hepatocellular carcinoma” (Scientific Reports, 2021)
Like-named read-outs stand apart in the source and are kept apart here.

Tests used:
Format in all cases: cell-based
HepG2 = test: Proliferation assay; conditions: for EC50: Homo sapiens, 96 h, 4 days
Text: (§1) The cell lines HepG2 (ACC180, RRID:CVCL_0027; DMSZ, Braunschweig Germany), SNU-475 (CRL-2236, Lot. 58483227, RRID:CVCL_0497; ATCC, Manassas, Virginia, US), SNU-387 (CRL-2237, Lot. 58483192, RRID:CVCL_0250; ATCC, Virginia, US), PLC/PRF/5 (300315, Lot. 812, RRID:CVCL_0485; CLS Cell Lines Service GmbH, Eppelheim, Germany) and HuH-7 (JCRB0403, Lot. 2272008, RRID:CVCL_0336; JCRB Cell Bank, Japan) were propagated according to the distributor’s guidelines. The authenticity of the cell lines was confirmed by short tandem repeat (STR) analysis (DSMZ, Braunschweig, Germany). Mycoplasma contamination was ruled out by PCR testing. For assays with platelet lysate (PL), FBS was substituted with 10% PLTMax Human Platelet Lysate (Cat. Nr. SCM141, Lot Number VP1602259; Millipore, Burlington, Massachusetts, US). The PL was supplemented with 20 U/ml Heparin (Heparin sodium salt from porcine intestinal mucosa, H4784-250MG; Sigma-Aldrich, Taufkirchen, Germany) to prevent coagulation.
(§2) Prior to the assay, the optimal seeding density was determined for each cell line to obtain an exponential growth during the experiment (2000 to 6000 cells per 96-well). Drug dilution series with 8 concentrations were prepared for EC50 determinations of single drugs. Three wells for each concentration were seeded (technical replicates). For drug combinations, dilution series of six concentrations for each drug alone or in combination at equal ratio were prepared. After 4 h of cell seeding, the drugs were added to the cells. Each 96-well plate contained a vehicle control (0.1% or 0.2% DMSO), a death control Ro 106-9920 (Tocris Cookson Ltd., Bristol, UK) a growth control (untreated cells compared to vehicle treated cells), and blank wells without cells. The proliferation assay was stopped after 4 days by crystal violet staining of the cells (0.5% in 20% methanol). Following extraction of the crystal violet with 8% acetic acid, the eluates were quantified photometrically at 570 nm and the reference wavelength 690 nm in an absorbance microplate reader (Tecan Sunrise; Tecan, Männedorf, Switzerland). Only readouts from 96-well plates with a Z-factor between 0.5 and 1.0 were used. Blank OD values were subtracted from the mean OD values. Nonlinear curve fitting and EC50 calculation was performed with Excel Solver.

HuH-7 = test: Proliferation assay; conditions: for EC50: Homo sapiens, 96 h, 4 days
Text: as §1, §2

PLC/PRF/5 = test: Proliferation assay; conditions: for EC50: Homo sapiens, 96 h, 4 days
Text: as §1, §2

HCT116 = test: Efficacy screening assay; conditions: HCT116, colon
Experimental: (§3) The experiment was performed by Oncolead GmbH & Co. KG (Karlsfeld , Germany), based on a standardized screening procedure . Cell lines were purchased directly from the ATCC, NCI and DSMZ cell line c ollections. Cells used for the study had undergone less than 20 passages. To ensure the absence of potential contamination and wrong assignment, all cell lines were tested using a whole genome assay (Agilent, USA). All cell lines were grown as recommended by the suppliers and with addition of 100 U/mL penicillin G and 100 µg/mL; streptomycin. Cell growth and treatments were performed in Nunclon D 96 -well plates (NUNC, Germany). The optimal seeding density for each cell line was determined to ensure exponential growth for the duration of the experiment. All cells growing without anti-cancer agents were sub-conﬂuent by the end of the treatment, as determined by visual inspection.
(§4) After an initial 24 h pre-growth period, the compounds were added. The vehicle concentration […]
(§5) was 0.1% DMSO. After incubation at 37°C for 72 h, the culture medium was aspirated, and the cells were precipitated by the addition of 10% trichloroacetic acid (Sigma-Aldrich, Missouri, US). After overnight incubation at 4°C, the plates were washed three times with deionized water. The precipitates were then stained with SRB (0.4% wt/v sulforhodamine B solution in 1% acetic acid, Sigma-Aldrich, Missouri, US). Afterwards, the plates were washed six times with 1% acetic acid to remove unbound stain. After drying the plates at room temperature, the bound SRB was solubilized with 10 mM Tris base and the optical density was measured at 520 nm using a Victor2 plate reader (Perkin Elmer, Germany). Blank OD values were subtracted from mean OD values for each concentration. The nonlinear curve ﬁtting and EC50 calculations were per formed using XLﬁt and algorithm “205” (ID Business […]
(§6) For comparison of EC50 values in Figure 1F, one-way ANOVA with multiple comparison testing (Tukey) was performed. Multiplicity adjusted p -values for the EC50 with sorafenib versus resminostat for each cell line and comparison between cell lines for sorafenib are presented (95% confidence interval for significance testing). For comparison of EC50 data in Figure 2B, one-way ANOVA with multiple comparison testing (Tukey) was performed. Multiplicity adjusted p-values with 95% confidence interval was applied. For the invasion assays in Figure 4, one-way ANOVA with multiple comparison testing (Tukey) was performed. Multiplicity adjusted p-values with 95% confidence interval was applied. The adjusted p-values comparing vehicle control without vs. with platelets and compound

NCIH358M = test: Efficacy screening assay; conditions: 72 h, lung
Experimental: as §3, §4, §5, §6

RD = test: Efficacy screening assay; conditions: 72 h, muscle
Experimental: as §3, §4, §5, §6

SAOS2 = test: Efficacy screening assay; conditions: SAOS2, bone
Experimental: as §3, §4, §5, §6

UMUC3 = test: Efficacy screening assay; conditions: UMUC3, bladder
Experimental: as §3, §4, §5, §6

With `CN(C)Cc1ccc(S(=O)(=O)n2ccc(/C=C/C(=O)NO)c2)cc1` [resminostat, Resminostat] the “Ratio PL/FBS” value (HepG2; HepG2, ratio of PL/FBS EC50s) was 1.0, the EC50 (HepG2; HepG2, fetal bovine serum, read-out: EC50 in FBS) was 500 ± 100 nM and the EC50 (HepG2; HepG2, platelet lysate, read-out: EC50 in PL) was 500 ± 300 nM. For the same compound, the EC50 (HuH-7; HuH-7, fetal bovine serum, read-out: EC50 in FBS) was 1000 ± 300 nM, the EC50 (HuH-7; HuH-7, platelet lysate, read-out: EC50 in PL) was 1300 ± 200 nM and the “Ratio PL/FBS” value (HuH-7; HuH-7, ratio of PL/FBS EC50s) was 1.3. The EC50 (PLC/PRF/5; PLC/PRF/5, fetal bovine serum, read-out: EC50 in FBS) was 1100 ± 200 nM, the EC50 (PLC/PRF/5; PLC/PRF/5, platelet lysate, read-out: EC50 in PL) was 900 ± 100 nM and the “effect of platelet factors on potency and efficacy” value (PLC/PRF/5; PLC/PRF/5, platelet lysate vs FBS dose-response curves (Fig. 2A)) was “unaffected”. The “Ratio PL/FBS” value (PLC/PRF/5; PLC/PRF/5, ratio of PL/FBS EC50s) was 0.8, the EC50 (HCT116; 72 h, read-out: EC50) was 790 nM and the EC50 (HCT116; Homo sapiens, HCT-116, 72 h, log of EC50, negative, read-out: log(EC50) (converted)) was 794 nM. It also gave an EC50 (HCT116; Homo sapiens, HCT-116, 72 h, read-out: EC50) of 792 nM, an EC50 (NCIH358M; NCI-H358M, log of EC50, negative, read-out: log(EC50) (converted)) of 4370 nM and an EC50 (NCIH358M; NCI-H358M, read-out: EC50) of 4330 nM. For the same compound, the EC50 (NCIH358M; read-out: EC50) was 4330 nM, the EC50 (RD; Homo sapiens, log of EC50, negative, read-out: log(EC50) (converted)) was 1550 nM and the EC50 (RD; Homo sapiens, read-out: EC50) was 1530 nM. It also gave an EC50 (RD; read-out: EC50) of 1530 nM, an EC50 (SAOS2; Homo sapiens, SAOS-2, 72 h, log of EC50, negative, read-out: log(EC50) (converted)) of 1910 nM and an EC50 (SAOS2; Homo sapiens, SAOS-2, 72 h, read-out: EC50) of 1890 nM. For the same compound, the EC50 (SAOS2; 72 h, read-out: EC50) was 1890 nM, the EC50 (UMUC3; Homo sapiens, UMUC3, 72 h, log of EC50, negative, read-out: log(EC50) (converted)) was 3240 nM and the EC50 (UMUC3; Homo sapiens, UMUC3, 72 h, read-out: EC50) was 3240 nM. For the same compound, the EC50 (UMUC3; 72 h, read-out: EC50) was 3240 nM.
